In brackets after ≈: the same amount, converted by molar mass. Several values for one entry are separate records, joined by “and”; a condition that tells them apart may be missing. Equal entries are not always repeated. Where two headings read alike, the source gives them in different places.
Experiments:
[1] = biological target: T1, aromatase (human placental microsomes) (Homo sapiens, UniProt P11511); assay: Noncellular, enzyme-based, microsomal aromatase bioassay; type: biochemical; details: for Noncellular Bioassay PCA 20 μg/mL: percent control activity; for IC50: six concentrations 1-100 μM;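 for all read-outs here: aromatase activity read as tritiated water release by scintillation counting after 15 min at 37 °C, relative to DMSO vehicle, with boiled microsomes giving background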
T1 construct: Microsomes were obtained from the remaining tissue as described; from tissue; host or cells: human term placenta (microsomal fraction)
T1 sequence (P11511 1-503): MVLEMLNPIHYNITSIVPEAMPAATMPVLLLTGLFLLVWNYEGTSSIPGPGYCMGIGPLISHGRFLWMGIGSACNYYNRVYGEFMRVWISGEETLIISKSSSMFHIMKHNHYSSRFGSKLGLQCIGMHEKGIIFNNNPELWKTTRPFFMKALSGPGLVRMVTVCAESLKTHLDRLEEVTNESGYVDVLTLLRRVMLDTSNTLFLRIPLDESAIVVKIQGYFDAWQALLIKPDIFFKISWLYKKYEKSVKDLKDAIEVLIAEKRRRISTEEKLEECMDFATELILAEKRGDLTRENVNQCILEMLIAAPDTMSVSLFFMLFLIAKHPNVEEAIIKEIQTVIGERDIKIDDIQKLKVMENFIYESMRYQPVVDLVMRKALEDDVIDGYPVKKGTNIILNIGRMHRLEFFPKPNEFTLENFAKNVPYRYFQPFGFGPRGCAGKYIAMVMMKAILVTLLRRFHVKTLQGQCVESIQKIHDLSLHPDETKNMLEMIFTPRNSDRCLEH

quinone reductase = assay: Quinone reductase (QR) induction assay in Hepa 1c1c7 cells; type: cell-based, murine
Text: Thus compound 21 is a candidate for use as a cancer chemopreventive agent.

[2] = Peroxynitrite scavenging activity, authentic ONOO−
Procedure: (§1) ONOO-scavenging activity was measured by monitoring the oxidation of nonfluorescent DHR 123 to highly fluorescent rhodamine 123 using the modified method of Kooy et al. Briefly, DHR 123 (5 mM) in EtOH, purged with nitrogen, was stored at −80° C. as a stock solution. This solution was not exposed to light, prior to the study. The rhodamine buffer (pH 7.4) consisted of 50 mM sodium phosphate dibasic, 50 mM sodium phosphate monobasic, 90 mM sodium chloride, 5 mM potassium chloride, and 100 μM DTPA. The final concentration of DHR 123 was 5 μM. The buffer in this assay was prepared before use and placed on ice. The concentrations of compounds tested were in the range from 0.2 to 100 μM in 10% DMSO. The background and final fluorescent intensities were measured 5 min after treatment with and without the addition of authentic ONOO— in 0.3 N sodium hydroxide (10 μM) or SIN-1 in deionized water (10 μM). DHR 123 was oxidized rapidly by ONOO—, superoxide anion (O2.-), and nitric oxide (NO.). The fluorescence intensity of oxidized DHR 123 was measured with an LS55 luminescence spectrometer (Perkin-Elmer, Boston, Mass.) at the excitation and emission wavelengths of 480 and 530 nm, respectively. […] DL-Penicillamine was used as a positive control.

[3] = Peroxynitrite scavenging activity, SIN-1-derived ONOO−
Procedure: as §1

[4] = system: DMBA-induced preneoplastic lesions; assay: Mouse mammary organ culture (MMOC) assay; type: cell-based; details: for percent inhibition of DMBA-induced preneoplastic lesions: 10 μg/mL
Procedure: This assay was carried out according to an established protocol disclosed in the art. In brief, 4-week-old BALB/c female mice (Charles River, Wilmington, Mass.) were pretreated for 9 days with 1 μg of estradiol and 1 mg of progesterone. On the 10th day, the mice were sacrificed and the second pair of thoracic mammary glands was dissected on silk and transferred to 60 mm culture dishes containing 5 mL of Waymouth's 752/1 MB medium supplemented with streptomycin, penicillin, and L-glutamine. The glands were incubated for 10 days (37° C., 95% O2 and 5% CO2) in the presence of growth-promoting hormones (5 μg of insulin, 5 μg of prolactin, 1 μg of aldosterone, and 1 μg of hydrocortisone per milliliter of medium). Glands were exposed to 2 μg/mL 7,12-dimethylbenz[a]anthracene (DMBA) between 72 and 96 h. After their exposure, glands were rinsed and transferred to new dishes with fresh medium. The fully differentiated glands were then permitted to regress by withdrawing all hormones except insulin for 14 additional days. Test compounds were present in the medium during days 1-10 of culture; mammary glands were scored for the incidence of lesions.

[5] = biological target: T2, aromatase in SK-BR-3 cells (Homo sapiens, UniProt P11511); assay: SK-BR-3 cell-based aromatase bioassay
T2 construct: SK-BR-3 hormone-independent human breast cancer cells that overexpress aromatase; endogenous in cells; host or cells: SK-BR-3 human breast cancer cells
T2 sequence (P11511 1-503): T1 sequence (P11511 1-503)

SK-BR-3 cells = assay: SK-BR-3 cell-based cytotoxicity bioassay (MTT cell viability); parameters: species or system human; details: 50 μM
[6] = system: DMBA-induced preneoplastic lesions; details: background statement; cited from earlier work
[7] = system: preneoplastic lesions (aberrant crypt foci); details: recent work, background statement, cited from earlier work

8-deoxygartanin [Compound 4]
Noncellular Bioassay PCA 20 μg/mL [1]: 82.6 PCA

CC(C)=CCc1c(O)ccc2oc3cc4c(c(O)c3c(=O)c12)CC(C(C)(C)O)O4 (stereo not drawn) [Compound 22, 2,3-dihydro-4,7-dihydroxy-2-(2-hydroxypropan-2-yl)-6-(3-methylbut-2-enyl)furo[3,2-b]xanthen-5-one]
CD (concentration required to double QR induction activity) (quinone reductase): 2.2 µg/mL

cudraxanthone G [Compound 3]
Noncellular Bioassay PCA 20 μg/mL [1]: 57.8 PCA

CC(C)=CCc1c(O)c(CC=C(C)C)c2oc3c(O)ccc(O)c3c(=O)c2c1O [Compound 8, gartanin]
Noncellular Bioassay PCA 20 μg/mL [1]: 75.9 PCA

O=C(/C=C/c1ccc(O)cc1)c1ccc(O)cc1O [isoliquiritigenin, reference compound]
CD (concentration required to double QR induction activity) (quinone reductase): 1.1 µg/mL

1-isomangostin [Compound 9]
Noncellular Bioassay PCA 20 μg/mL [1]: 52.6 PCA

CC(C)=CCc1c(O)cc2oc3ccc(O)c(CC=C(C)C)c3c(=O)c2c1O [Compound 23, 1,3,7-trihydroxy-2,8-di-(3-methylbut-2-enyl)xanthone]
CD (concentration required to double QR induction activity) (quinone reductase): 0.68 µg/mL

CC(C)=CCc1c(O)cc2oc3ccc4c(c3c(=O)c2c1O)C(O)C(C(C)(C)O)O4 (stereo not drawn) [Compound 21, 1,2-dihydro-1,8,10-trihydroxy-2-(2-hydroxypropan-2-yl)-9-(3-methylbut-2-enyl)furo[3,2-a]xanthen-11-one]
CD (concentration required to double QR induction activity) (quinone reductase): 1.3 µg/mL

COc1c(O)cc2oc3cc4c(c(O)c3c(=O)c2c1CC=C(C)C)C=CC(C)(C)O4 [Compound 24, mangostanin]
CD (concentration required to double QR induction activity) (quinone reductase): 0.95 µg/mL

COc1ccc([C@@H]2COc3c(ccc4c3C=CC(C)(C)O4)C2)c(O)c1 [4′O-methylglabridin]
aromatase inhibiting activity, in words [1]: show results that are supportive of these compounds having utility as aromatase inhibitors

CC(C)=CCc1c(O)cc2oc3cc(O)c(O)c(CC=C(C)C)c3c(=O)c2c1O [Compound 11, γ-mangostin]
antioxidant activity, in words (authentic ONOO−) [2]: potent antioxidant activity
antioxidant activity, in words (SIN-1-derived ONOO−) [3]: potent antioxidant activity
percent inhibition of DMBA-induced preneoplastic lesions [4]: 42.9%
aromatase inhibiting activity, in words [1]: greatest aromatiase inhibiting activity
Noncellular Bioassay PCA 20 μg/mL [1]: 4.7 PCA
IC50 [1]: 6.88 µM and 6.9 µM
IC50 [5]: 4.97 ± 1.9 µM
Cell-based Bioassay PCA 50 μM [5]: −0.5 PCA

CC(C)=CCc1c(O)cc2oc3c(CC=C(C)C)c(O)c4c(c3c(=O)c2c1O)C=CC(C)(C)O4 [Compound 14, tovophyllin A]
Noncellular Bioassay PCA 20 μg/mL [1]: 74.7 PCA

CC(C)=CCc1cc(/C=C/C(=O)c2ccc3c(c2O)C=CC(C)(C)O3)ccc1O [paratocarpin B]
aromatase inhibiting activity, in words [1]: show results that are supportive of these compounds having utility as aromatase inhibitors

CC(C)=CCC/C(C)=C/Cc1c(O)cc2oc3c(O)cccc3c(=O)c2c1O [Compound 12, mangostinone]
Noncellular Bioassay PCA 20 μg/mL [1]: 78.8 PCA

8-hydroxycudraxanthone G [Compound 1]
antioxidant activity, in words (authentic ONOO−) [2]: potent antioxidant activity
antioxidant activity, in words (SIN-1-derived ONOO−) [3]: potent antioxidant activity
Noncellular Bioassay PCA 20 μg/mL [1]: 55.1 PCA

COc1c(O)cc2oc3cc(O)c(CC=C(C)C)c(O)c3c(=O)c2c1CCC(C)(C)O [Compound 6, garcinone D]
aromatase inhibiting activity, in words [1]: greatest aromatiase inhibiting activity
Noncellular Bioassay PCA 20 μg/mL [1]: 10.0 PCA
IC50 [1]: 5.16 µM and 5.2 µM
Cell-based Bioassay PCA 50 μM [5]: 50.7 PCA
Cytotoxicity % cell surv. (SK-BR-3 cells): 89.4%

COc1c(O)cc2oc3cc(O)c(CC=C(C)C)c(O)c3c(=O)c2c1CC=C(C)C [Compound 10, α-mangostin]
antioxidant activity, in words (authentic ONOO−) [2]: potent antioxidant activity
antioxidant activity, in words (SIN-1-derived ONOO−) [3]: potent antioxidant activity
IC50 in dose-response MMOC assay [4]: 1.0 µg/mL (≈ 2.44 µM)
percent inhibition of DMBA-induced preneoplastic lesions [4]: 57.1%
IC50 ([4]; same value in μM, read-out: IC50 in dose-response MMOC assay): 2.44 µM
aromatase inhibiting activity, in words [1]: greatest aromatiase inhibiting activity
Noncellular Bioassay PCA 20 μg/mL [1]: 22.2 PCA
IC50 [1]: 20.7 µM
Cell-based Bioassay PCA 50 μM [5]: 59.4 PCA
Cytotoxicity % cell surv. (SK-BR-3 cells): 18.4%
alveolar duct formation in mouse mammary organ culture model, in words [6]: inhibit alveolar duct formation
inhibition of preneoplastic lesions in colon carcinogenesis model, in words [7]: suppress the carcinogen-induced formation of aberrant crypt foci
inhibition of preneoplastic lesions in colon carcinogenesis model, in words ([7]; listed as crude α-mangostin (10) preparation): efficacy in inhibiting preneoplastic lesions

CC(C)=CCC/C(C)=C/Cc1c(O)cc2oc3c(O)ccc(O)c3c(=O)c2c1O [Compound 13, smeathxanthone A]
antioxidant activity, in words (authentic ONOO−) [2]: potent antioxidant activity
antioxidant activity, in words (SIN-1-derived ONOO−) [3]: potent antioxidant activity
Noncellular Bioassay PCA 20 μg/mL [1]: 80.8 PCA

garcinone E [Compound 7]
aromatase inhibiting activity, in words [1]: greatest aromatiase inhibiting activity
Noncellular Bioassay PCA 20 μg/mL [1]: 23.9 PCA
IC50 [1]: 25.1 µM
Cell-based Bioassay PCA 50 μM [5]: 32.3 PCA
Cytotoxicity % cell surv. (SK-BR-3 cells): 52.3%

N#Cc1ccc(C(c2ccc(C#N)cc2)n2cncn2)cc1 [LET, Letrozole, reference compound]
Cell-based Bioassay PCA (positive control) ([5]; 10 nM letrozole): 7.4 PCA
